Experimental findings from US20160184459A1, “CANCER CELL SPECIFIC IMAGING PROBES AND METHODS OF USE” (THE RESEARCH FOUNDATION FOR THE STATE UNIVERSITY OF NEW YORK, priority 2013, published 2016) are described below.

Each structure is given as a SMILES string.

Series [1] deals with breast cancer cells (MCF-7 and MDA-MB-231). The series is described as follows: PI staining cytotoxicity, breast cancer cells. It counts as cell-based. How it is done:
(§1) FIG. 17. Selective cytotoxicity by BKAc-Puro on breast cancer cells. Normal mammary gland epithelial cells (Eph4) and breast cancer cells (MCF-7 and MDA-MB-231) were grown and analyzed as in FIG. 10. BF, bright field. PI, fluorescent PI channel. BKAc-Puro can selectively cause cell death in breast cancer cells (MCF-7 and MDA-MB-231) while leaving normal Eph4 cells unharmed.
(§2) Cell number was determined by cell counting using improved Neubauer hemacytometer. Cell viability was calculated as the number of viable cells divided by the total number of cells using Trypan Blue Stain (Invitrogen) to distinguish non-viable cells. Data were obtained from duplicated samples with quadruplicate measurements. MTS based cell viability assay was performed using CellTiter 96 Aqueous Cell Proliferation Assay (Promega) according to the manufacturer's instruction. […] After additional 2-3 h incubation, the absorbance of the formazan at 490 nm was measured by the microplate reader. […] Determination of non-viable cells using PI staining was performed by adding 1 μg/ml of PI solution (Sigma) to the cell culture, prior to the examination under fluorescence microscopy (Axiovert 3, Carl Zeiss) through a×32 objective equipped with a digital imaging processor (Infinity 3, Lumenera).

Series [2] in a line: Toxicity / body weight change in mice. Type of series: in vivo, mouse. The text has this:
FIG. 20. In vivo anticancer efficacy of BKAc-Puro. […] HCT116 cells were implanted subcutaneously into female nude mice. When the developed tumors reached 200 mm^3, animals were intraperitoneally injected by the indicated dose of the compound or vehicle control (DMSO). Tumor volume was estimated by the equation vol=(a×b^2)/2, where vol, a, and b represent volume, the length of the major axis, and the length of the minor axis, respectively. Arrows indicate the time points of treatment. (b) Body weight change during the treatment in a. Value is expressed in percent change compared to the day of the first treatment.
FIG. 21. HCT116 cells were implanted subcutaneously into female nude mice. When palpable tumors reached 50-150 mm^3, animals were randomized and treated by the indicated dose of the compound or vehicle control (DMSO) via intraperitoneal injection. Tumor incidence is presented as number of mice developed tumor (volume >300 mm^3) after 2 weeks of daily treatment/number of mice treated. Tumor volume was estimated by the equation vol=(a×b^2)/2, where vol, a, and b represent volume, the length of the major axis, and the length of the minor axis, respectively.
FIG. 22. Dose escalation toxicity study. Female nude mice (8-10 weeks old) were treated with the indicated dose of BKAc-Puro (7, 20, 67, 200, and 400 mg/kg; n=3 in each treatment group). Body weight change during the treatment is expressed in percent change compared to the day of the first treatment. Arrows indicate the time points of treatment. Data represent mean values±s.d. (n=3).
(§3) FIG. 29. In vivo anticancer efficacy of Boc-KAc-Puro. (a) Tumor growth in HCT116 xenograft model. Animals were treated with acidified saline control or Boc-KAc-Puro (50 or 150 mg/kg). Values are mean±s.d. (n=5 mice per group). *** P<0.001 compared to the control group. P=0.000716 (50 mg/kg), P=0.000349 (150 mg/kg) at 10 d. (b) Body weight change during the treatment in a and was monitored as a sign of general animal health. Values are mean±s.d. (c) Tumor growth in HT29 xenograft model. Animals were treated with acidified saline control or Boc-KAc-Puro (150 mg/kg). Values are mean±s.d. (n=5 mice per group). *** P<0.001 compared to the control group. P=0.000514 (150 mg/kg) at 10 d. (d) Body weight change during the treatment in c was monitored as a sign of general animal health. Values are mean±s.d. (e) Levels of Puro-incorporated proteins were monitored by immunoblotting. Animals bearing HT29 xenograft tumor were given daily intraperitoneal administration of the prodrug at 150 mg/kg/dose for 3 d, followed by preparation of tissue lysates. The lower panel (anti-α-Tubulin) served as a loading control.

Another series has as its system Eph4. The series is described as follows: Cell viability assays (MTS, PI staining), normal mammary epithelial cells. Type of series: cell-based, mouse. As to the method: FIG. 15. Inhibition of cell viability by BKAc-Puro. The cell lines were grown and analyzed as in FIG. 12.
as §1, §2

Series [3] concerns Puro incorporation in tumors, muscle and kidney. The series is described as follows: Immunoblotting of Puro-labeled proteins in tissue lysates of HT29 xenograft mice. To be noted: 150 mg/kg/dose daily intraperitoneal for 3 d. It counts as in vivo, mouse. As to the method: as §3, with “Animals bearing HT29 xenograft tumor were given daily intraperitoneal administration of the prodrug at 150 mg/kg/dose for 3 d, followed by preparation of tissue lysates. The lower panel (anti-α-Tubulin) served as a loading control.” left out
Cultured cells or tissue samples were sonicated in RIPA lysis buffer (1% NP-40, 0.1% SDS, 50 mM Tris-HCl pH 7.4, 150 mM NaCl, 0.5% sodium deoxycholate, 1 mM EDTA) supplemented with PMSF and protease inhibitor cocktail (Roche) on ice followed by clarification. […] Proteins of interest were detected with anti-mouse secondary antibody by chemiluminescence (ECL Kit, GE Healthcare Life Sciences). […]
(In general: In western blotting, separated proteins are transferred to a membrane and probed.)

Series [4] has as its system prostate cancer cells (PC-3, DU-145 and LNCaP). Nature of the series: Cell viability assay, prostate cancer cells. It counts as cell-based. To be noted: dose-response, MTS. How it is done:
FIG. 19. Selective cytotoxicity by BKAc-Puro on prostate cancer cells. Prostate cancer (PC-3, DU-145, and LNCaP), colon cancer (HCT116 as a positive control sensitive to the drug), and normal colon (CCD841-CoN as a negative control) cells were grown and analyzed as in FIG. 13. BKAc-Puro can effectively cause cell death on prostate cancer cells.
as §2

As for `COc1ccc(CC(NC(=O)C(CCCCNC(C)=O)NC(=O)OC(C)(C)C)C(=O)NC2C(O)[C@H](n3cnc4c(N(C)C)ncnc43)O[C@@H]2CO)cc1` (stereo partly drawn) [BKAc-Puro, N-[3′-(α-Amino-p-methoxyhydrocinnamamido)-3′-deoxy-N,N-dimethyldenosinyl)-N-α-(t-butoxycarbonyl]-N-ε-acetyl-L-lysineamide], the values for the Cell death entry (in series [1]; with Eph4; in series [4]) were “selectively caused cell death”, “unharmed” and “effectively caused cell death”, respectively. In series [2] (150 mg/kg/dose daily intraperitoneal for 10 d), the “Tolerability judged by weight loss” value is on record as “well-tolerated”. Also, the Toxicity entry in series [2] (400 mg/kg, during and after 14 injections, HCT116 xenograft mice) is “No toxicity was observed”; in series [2] (tumor incidence study groups, daily intraperitoneal treatment) it was “no toxicity was observed”. The “Systemic toxicity, dose escalation” value in series [2] (up to 400 mg/kg, 5 consecutive daily injections, female nude mice) is reported as “No severe systemic toxicity was observed”. Also, in series [3], the “Intensity of Puro incorporation, tumors versus normal muscle and kidney” value is “substantially greater in tumors”.
